Reference: PubChem BioAssay (NCI)
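Cells were grown in 96-well plates and exposed to each compound for 48 hours at five concentrations; endpoints were interpolated linearly between bracketing concentrations, or set to the highest concentration if not reached. TGI: concentration producing complete growth inhibition.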

What was measured:
Test in all cases: NCI-60 cell line screen, 48 h
[1] = test system: K-562 leukemia
[2] = test system: MALME-3M melanoma
[3] = test system: DMS 114 small cell lung
[4] = test system: M14 melanoma
[5] = test system: HCC-2998 colon
[6] = test system: A498 renal
[7] = test system: RPMI-8226 leukemia
[8] = test system: SNB-78 CNS
[9] = test system: A549 NSCLC
[10] = test system: NCI-H460 lung
[11] = test system: SNB-19 CNS
[12] = test system: DMS 273 small cell lung
[13] = test system: OVCAR-5 ovarian
[14] = test system: OVCAR-4 ovarian
[15] = test system: SR leukemia
[16] = test system: SK-OV-3 ovarian
[17] = test system: SW-620 colon
[18] = test system: HOP-18 NSCLC
[19] = test system: HCT-116 colon
[20] = test system: UO-31 renal
[21] = test system: NCI-H226 lung
[22] = test system: OVCAR-8 ovarian
[23] = test system: RXF 393 renal
[24] = test system: SN12C renal
[25] = test system: 786-0 renal
[26] = test system: HOP-62 NSCLC
[27] = test system: IGROV1 ovarian
[28] = test system: SF-295 CNS
[29] = test system: HOP-92 NSCLC
[30] = test system: COLO 205 colon
[31] = test system: UACC-62 melanoma
[32] = test system: HL-60(TB) leukemia
[33] = test system: NCI-H522 lung
[34] = test system: U251 CNS
[35] = test system: SK-MEL-5 melanoma
[36] = test system: SNB-75 CNS
[37] = test system: SK-MEL-28 melanoma
[38] = test system: SF-268 CNS
[39] = test system: SK-MEL-2 melanoma
[40] = test system: CAKI-1 renal
[41] = test system: DLD-1 colon
[42] = test system: LXFL 529 NSCLC
[43] = test system: EKVX NSCLC
[44] = test system: XF 498 CNS
[45] = test system: KM20L2 colon
[46] = test system: OVCAR-3 ovarian
[47] = test system: TK-10 renal
[48] = test system: M19-MEL melanoma
[49] = test system: NCI-H23 lung
[50] = test system: UACC-257 melanoma
[51] = test system: ACHN renal
[52] = test system: KM12 colon
[53] = test system: HCT-15 colon
[54] = test system: HT29 colon
[55] = test system: CCRF-CEM leukemia
[56] = test system: LOX IMVI melanoma
[57] = test system: MOLT-4 leukemia
[58] = test system: SF-539 CNS

`COc1ccc(-c2c3ccccc3c(-c3ccc(OC)cc3)c3ccccc23)cc1` gave a TGI [1] of over 100 µM, a TGI [2] of over 100 µM and a TGI [3] of over 100 µM. For the same molecule, the TGI [4] was over 100 µM, the TGI [5] was over 100 µM and the TGI [6] was over 100 µM. The TGI [7] was over 100 µM, the TGI [8] was over 100 µM and the TGI [9] was over 100 µM. For the same molecule, the TGI [10] was over 100 µM, the TGI [11] was over 100 µM and the TGI [12] was over 100 µM. For the same molecule, the TGI [13] was over 100 µM, the TGI [14] was over 100 µM and the TGI [15] was over 100 µM. It also gave a TGI [16] of over 100 µM, a TGI [17] of over 100 µM and a TGI [18] of over 100 µM. It also gave a TGI [19] of over 100 µM, a TGI [20] of over 100 µM and a TGI [21] of over 100 µM. The TGI [22] was over 100 µM, the TGI [23] was over 100 µM and the TGI [24] was over 100 µM. For the same molecule, the TGI [25] was over 100 µM, the TGI [26] was over 100 µM and the TGI [27] was over 100 µM. For the same molecule, the TGI [28] was over 100 µM, the TGI [29] was over 100 µM and the TGI [30] was over 100 µM. The TGI [31] was over 100 µM, the TGI [32] was over 100 µM and the TGI [33] was over 100 µM. It also gave a TGI [34] of over 100 µM, a TGI [35] of over 100 µM and a TGI [36] of 95.7 µM. For the same molecule, the TGI [37] was over 100 µM, the TGI [38] was over 100 µM and the TGI [39] was over 100 µM. The TGI [40] was over 100 µM, the TGI [41] was over 100 µM and the TGI [42] was over 100 µM. It also gave a TGI [43] of over 100 µM, a TGI [44] of over 100 µM and a TGI [45] of over 100 µM. For the same molecule, the TGI [46] was over 100 µM, the TGI [47] was over 100 µM and the TGI [48] was over 100 µM. The TGI [49] was over 100 µM, the TGI [50] was over 100 µM and the TGI [51] was over 100 µM. It also gave a TGI [52] of over 100 µM, a TGI [53] of over 100 µM and a TGI [54] of over 100 µM. It also gave a TGI [55] of over 100 µM, a TGI [56] of over 100 µM and a TGI [57] of over 100 µM. It also gave a TGI [58] of over 100 µM.
Molecule `COc1nc(NC2OCC(O)C(O)C2O)c(NC2OCC(O)C(O)C2O)c(=O)n1C` (stereo not drawn) has a TGI [1] of over 100 µM, a TGI [2] of over 100 µM and a TGI [3] of over 100 µM. It also gave a TGI [4] of over 100 µM, a TGI [5] of over 100 µM and a TGI [6] of over 100 µM. It also gave a TGI [7] of over 100 µM, a TGI [8] of over 100 µM and a TGI [9] of over 100 µM. For the same molecule, the TGI [10] was over 100 µM, the TGI [11] was over 100 µM and the TGI [12] was over 100 µM. It also gave a TGI [14] of over 100 µM, a TGI [15] of over 100 µM and a TGI [16] of over 100 µM. The TGI [17] was over 100 µM, the TGI [18] was over 100 µM and the TGI [19] was over 100 µM. The TGI [20] was over 100 µM, the TGI [21] was over 100 µM and the TGI [22] was over 100 µM. It also gave a TGI [23] of over 100 µM, a TGI [24] of over 100 µM and a TGI [25] of over 100 µM. The TGI [26] was over 100 µM, the TGI [27] was over 100 µM and the TGI [28] was over 100 µM. It also gave a TGI [29] of over 100 µM, a TGI [30] of over 100 µM and a TGI [31] of over 100 µM. It also gave a TGI [32] of over 100 µM, a TGI [33] of over 100 µM and a TGI [34] of over 100 µM. The TGI [36] was over 100 µM, the TGI [37] was over 100 µM and the TGI [38] was over 100 µM. It also gave a TGI [39] of over 100 µM, a TGI [41] of over 100 µM and a TGI [42] of over 100 µM. It also gave a TGI [43] of over 100 µM, a TGI [44] of over 100 µM and a TGI [45] of over 100 µM. It also gave a TGI [46] of over 100 µM, a TGI [47] of over 100 µM and a TGI [48] of over 100 µM. The TGI [49] was over 100 µM, the TGI [50] was over 100 µM and the TGI [51] was over 100 µM. For the same molecule, the TGI [52] was over 100 µM, the TGI [53] was over 100 µM and the TGI [54] was over 100 µM. The TGI [55] was over 100 µM, the TGI [56] was over 100 µM and the TGI [57] was over 100 µM. It also gave a TGI [58] of over 100 µM.
